Results on 42 compounds are retold here after patent publication US20180251431A1 (VERTEX PHARMACEUTICALS INCORPORATED, priority 2016, published 2018).

The subject of the first test is HEK293 cells. As to the kind of experiment: HEK293 VLCFA-LPC IC50 determination (13C-labeled C26:0 LPC by UHPLC/MS). The test is classed as cell-based, human. The settings on record: Homo sapiens, HEK293, 48 h, average of one or more replicates; 13C-labeled C26:0 LPC, 48 hours; read-out: Average HEK293 IC50. The method in brief:
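Suspension HEK293 cells (final 0.5 million/mL after mixing with equal volume) incubated 48 hours with compound plus 13C-acetate (1.0 mg/mL in added media), shaking at 37° C. Lipids extracted with hexane/isopropanol or methanol, C13:0 LPC standard. UHPLC/MS of 13C-labeled C26:0 LPC (638.500/104.100 m/z); IC50 by four-parameter fit.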
Regarding `Cc1nn(C)cc1-n1ccc(NC(=O)C2(c3ccccc3F)CC2)n1` [Compound 403, N-[1-(1,3-dimethylpyrazol-4-yl)pyrazol-3-yl]-1-(2-fluorophenyl)cyclopropanecarboxamide], the IC50 (commonly the midpoint of a concentration-inhibition curve) is > 5000 nM.
The same measure, in the same setting: the same measure for `O=C(Nc1ccn(-c2ccc(F)nc2)n1)C1(c2ccccc2F)CC1` [Compound 377, 1-(2-fluorophenyl)-N-[1-(6-fluoro-3-pyridyl)pyrazol-3-yl]cyclopropanecarboxamide]: 23 nM; for `Cc1cc(-n2ccc(NC(=O)C3(c4ccccc4F)CC3)n2)nc(C)n1` [Compound 337, N-[1-(2,6-dimethylpyrimidin-4-yl)pyrazol-3-yl]-1-(2-fluorophenyl)cyclopropanecarboxamide]: > 5000 nM; for `Nc1cc(-n2ccc(NC(=O)C3(c4ccccc4F)CC3)n2)ccc1F` [Compound 385, N-[1-(3-amino-4-fluoro-phenyl)pyrazol-3-yl]-1-(2-fluorophenyl)cyclopropanecarboxamide]: 1400 nM.
Still for that read-out and setting: for `Cc1nccc(-n2ccc(NC(=O)C3(c4ccccc4F)CC3)n2)n1` [Compound 331, 1-(2-fluorophenyl)-N-[1-(2-methylpyrimidin-4-yl)pyrazol-3-yl]cyclopropanecarboxamide] the value was > 5000 nM; for `O=C(Nc1ccn(-c2ccccc2)n1)C1(c2ccccc2)CC1(F)F` (single isomer, unassigned) [Compound 366], 210 nM.
As to `N#Cc1ncccc1-n1ccc(NC(=O)C2(c3ccccc3F)CC2)n1` [Compound 320, N-[1-(2-cyano-3-pyridyl)pyrazol-3-yl]-1-(2-fluorophenyl)cyclopropanecarboxamide], the IC50 was > 5000 nM.

The test is the same for the next values; noted with them: Homo sapiens, HEK293, HEK293 cells; average of one or more replicates; read-out: Average HEK293 IC50.
Regarding `CC(C)(C(=O)Nc1ccn(-c2ccccc2)n1)c1ccccc1F` [Compound 296, 2-(2-fluorophenyl)-2-methyl-N-(1-phenylpyrazol-3-yl)propanamide], the IC50 is 1700 nM.
The same measure, in the same setting: the same measure for `O=C(Nc1ccn(-c2cccc(Cl)c2)n1)C1(c2ccccc2)CC1` [Compound 129, N-[1-(3-chlorophenyl)pyrazol-3-yl]-1-phenyl-cyclopropanecarboxamide]: 700 nM.
The same measure, in the same setting: the same measure for `O=C(Cc1ccccc1)Nc1ccn(-c2cccc(Cl)c2)n1` [Compound 121, N-[1-(3-chlorophenyl)pyrazol-3-yl]-2-phenyl-acetamide]: 650 nM; for `O=C(Nc1ccn(-c2ccnc(F)c2)n1)[C@]1(c2ccccc2)CC12CCCC2` [Compound 164, (2R)-N-[1-(2-fluoro-4-pyridyl)pyrazol-3-yl]-2-phenyl-spiro[2.4]heptane-2-carboxamide]: > 5000 nM.
On the same count and under the same terms, the same measure for `N#Cc1cccc(C2(C(=O)Nc3ccn(-c4ccccc4)n3)CC2)c1` [Compound 244, 1-(3-cyanophenyl)-N-(1-phenylpyrazol-3-yl)cyclopropanecarboxamide]: 280 nM.
Take `O=C(Cc1ccccc1)Nc1ccn(-c2cnccn2)n1` [Compound 218, 2-phenyl-N-(1-pyrazin-2-ylpyrazol-3-yl)acetamide]: the IC50 was > 2000 nM.
On the same count and under the same terms, the same measure for `CC1CC1(C(=O)Nc1ccn(-c2cncc(Cl)c2)n1)c1ncccc1F` (stereo not drawn) [Compound 504, N-[1-(5-chloro-3-pyridyl)pyrazol-3-yl]-1-(3-fluoro-2-pyridyl)-2-methyl-cyclopropanecarboxamide]: 120 nM.
Same read-out and setting: for `O=C(Nc1ccn(-c2ccccc2)n1)C1(c2ccccc2Cl)CC1` [Compound 24, 1-(2-chlorophenyl)-N-(1-phenylpyrazol-3-yl)cyclopropanecarboxamide] the value was 41 nM; for `O=C(Nc1ccn(-c2cncc(F)c2)n1)C1(c2cccc(OC(F)(F)F)c2)CC1` [Compound 465], 24 nM.
On the same count and under the same terms, for `O=C(Nc1ccn(-c2ccnc(F)c2)n1)C1(c2ccc(I)cc2)CC1` [Compound 238, N-[1-(2-fluoro-4-pyridyl)pyrazol-3-yl]-1-(4-iodophenyl)cyclopropanecarboxamide] the value was 120 nM; for `CC[C@@H](C(=O)Nc1ccn(-c2ccccc2)n1)c1ccccc1` [Compound 28, (2R)-2-phenyl-N-(1-phenylpyrazol-3-yl)butanamide], 580 nM; for `COc1ncc(-n2ccc(NC(=O)C3(c4ncccc4F)CC3C)n2)cc1F` (stereo not drawn) [Compound 509, N-[1-(5-fluoro-6-methoxy-3-pyridyl)pyrazol-3-yl]-1-(3-fluoro-2-pyridyl)-2-methyl-cyclopropanecarboxamide], 180 nM.
Consider `CCC(C(=O)Nc1ccn(-c2ccnc(F)c2)n1)c1ccccc1` (stereo not drawn) [Compound 171, N-[1-(2-fluoro-4-pyridyl)pyrazol-3-yl]-2-phenyl-butanamide], for which the IC50 was determined as 140 nM.
Same read-out and setting: the same measure for `Cc1ncccc1-n1ccc(NC(=O)C2(c3ccccc3F)CC2)n1` [Compound 471, 1-(2-fluorophenyl)-N-[1-(2-methyl-3-pyridyl)pyrazol-3-yl]cyclopropanecarboxamide]: > 5000 nM.
Still for that read-out and setting: for `O=C(Cc1ccccc1)Nc1ccn(-c2ccc(F)c(F)c2)n1` [Compound 189, N-[1-(3,4-difluorophenyl)pyrazol-3-yl]-2-phenyl-acetamide] the value was 230 nM; for `O=C(Nc1ccn(-c2ncccc2F)n1)C1(c2ccccc2F)CC1` [Compound 95, 1-(2-fluorophenyl)-N-[1-(3-fluoro-2-pyridyl)pyrazol-3-yl]cyclopropanecarboxamide], 390 nM.
Same read-out and setting: the same measure for `[2H]c1nc(C)nc([2H])c1-n1ccc(NC(=O)C2(c3ccccc3F)CC2)n1` [Compound 258, N-[1-(4,6-dideuterio-2-methyl-pyrimidin-5-yl)pyrazol-3-yl]-1-(2-fluorophenyl)cyclopropanecarboxamide]: > 5000 nM; for `O=C(Cn1nccn1)Nc1ccn(-c2ccccc2)n1` [Compound 298, N-(1-phenylpyrazol-3-yl)-2-(triazol-2-yl)acetamide]: > 2000 nM; for `O=C(Cc1ccccc1)Nc1ccn(-c2ccncc2)n1` [Compound 99, 2-phenyl-N-[1-(4-pyridyl)pyrazol-3-yl]acetamide]: 760 nM.
On to `O=C(Nc1ccn(-c2ncccc2F)n1)C1(c2ncccc2F)CC1` [Compound 460, 1-(3-fluoro-2-pyridyl)-N-[1-(3-fluoro-2-pyridyl)pyrazol-3-yl]cyclopropanecarboxamide], for which the IC50 was > 2000 nM.
For the compound `Cc1cnn(CC(=O)Nc2ccn(-c3ccccc3)n2)c1` [Compound 290, 2-(4-methylpyrazol-1-yl)-N-(1-phenylpyrazol-3-yl)acetamide], the IC50 is > 5000 nM.
In the case of `O=C(Cc1cc(C(F)(F)F)cc(C(F)(F)F)c1)Nc1ccn(-c2ccccc2)n1` [Compound 73, 2-[3,5-bis(trifluoromethyl)phenyl]-N-(1-phenylpyrazol-3-yl)acetamide], the IC50 is > 5000 nM.
As to `O=C(Cc1ccccc1)Nc1ccn(-c2ccccc2F)n1` [Compound 185, N-[1-(2-fluorophenyl)pyrazol-3-yl]-2-phenyl-acetamide], the IC50 was 470 nM.
Same read-out and setting: the same measure for `O=C(Nc1ccn(-c2ccccc2)n1)C1(c2cc(F)cc(C(F)(F)F)c2)CC1` [Compound 29, 1-[3-fluoro-5-(trifluoromethyl)phenyl]-N-(1-phenylpyrazol-3-yl)cyclopropanecarboxamide]: 1900 nM.
Still for that read-out and setting: the same measure for `Cc1cc(-n2ccc(NC(=O)Cc3ccccc3F)n2)ccn1` [Compound 110, 2-(2-fluorophenyl)-N-[1-(2-methyl-4-pyridyl)pyrazol-3-yl]acetamide]: > 10000 nM.
On the same count and under the same terms, for `COc1ccc(CC(=O)Nc2ccn(-c3ccccc3)n2)cc1OC` [Compound 66, 2-(3,4-dimethoxylphenyl)-N-(1-phenylpyrazol-3-yl)acetamide] the value was 2800 nM; for `O=C(Nc1ccn(-c2nccs2)n1)C1(c2ccccc2F)CC1` [Compound 92, 1-(2-fluorophenyl)-N-(1-thiazol-2-ylpyrazol-3-yl)cyclopropanecarboxamide], 38 nM; for `N#Cc1ccc(C2(C(=O)Nc3ccn(-c4ccnc(F)c4)n3)CC2)cc1` [Compound 226, 1-(4-cyanophenyl)-N-[1-(2-fluoro-4-pyridyl)pyrazol-3-yl]cyclopropanecarboxamide], 110 nM.
On to `O=C(Cc1c(F)cc(F)cc1F)Nc1ccn(-c2ccccc2)n1` [Compound 76, N-(1-phenylpyrazol-3-yl)-2-(2,4,6-trifluorophenyl)acetamide], for which the IC50 came to 72 nM.
On the same count and under the same terms, for `O=C(Cc1ccccc1)Nc1ccn(-c2ccnc(Cl)c2)n1` [Compound 83, N-(1-(2-chloropyridin-4-yl)-1H-pyrazol-3-yl)-2-phenylacetamide] the value was 600 nM; for `O=C(Nc1ccn(-c2ccnc(Cl)c2)n1)C1(c2ccccc2)CC1` [Compound 84, N-(1-(2-chloropyridin-4-yl)-1H-pyrazol-3-yl)-1-phenylcyclopropane-1-carboxamide], 61 nM.
Take `O=C(Nc1ccn(-c2ccncn2)n1)C1(c2ccncc2F)CC1` [Compound 278, 1-(3-fluoro-4-pyridyl)-N-(1-pyrimidin-4-ylpyrazol-3-yl)cyclopropanecarboxamide]: the half-inhibitory concentration (IC50) is > 5000 nM.
In the case of `O=C(Nc1ccn(-c2ccc(F)cc2)n1)C1(c2ccccc2F)CC1` [Compound 182, 1-(2-fluorophenyl)-N-[1-(4-fluorophenyl)pyrazol-3-yl]cyclopropanecarboxamide], the concentration for half-maximal inhibition (IC50) was found to be 74 nM.

Staying with this test, now noted: average of one or more replicates; 13C-labeled C26:0 LPC, 48 hours; read-out: Average HEK293 IC50.
With `O=C(Nc1ccn(-c2cncc(F)c2)n1)C1(c2ccccc2)CC1(F)F` (single isomer, unassigned) [Compound 435], the IC50 is 60 nM.
Same read-out and setting: for `O=C(Nc1ccn(-c2ccccc2)n1)C1(c2ccccc2)CC1(F)F` (single isomer, unassigned) [Compound 367] the value was 110 nM.
